Test results as given in patent publication US20260007758A1, “SO[…]-2 RECEPTOR (SST2R) NON-PEPTIDE DRUG CONJUGATES AND USES THEREOF” (Crinetics Pharmaceuticals, Inc., priority 2024, published 2026).
*1 amine or outer side, *2 acyl side, *3 side chain or, on linkers, in order; H or OH if unused. Where a SMILES comes first, the peptide text is derived from it. [ ]: non-standard residue; d: D form. The star is where a group is joined. X4 = Cc1cc(F)cc(-c2cnc(NCCNC(=O)CCOCCC(=O)*)c(-c3nc4ccc(Cl)cc4[nH]3)c2N2CCC(N)CC2)c1; Dolaproine = CO[C@@H]([C@@H]1CCCN1)[C@@H](C)C(=O)O; Dil = CC[C@H](C)[C@H](NC)[C@@H](CC(=O)O)OC; PABC = O=C(OCc1ccc(N[*:1])cc1)[*:2]; X2 = C[C@@H](N*)[C@@H](O)c1ccccc1; Cit = NC(=O)NCCC[C@H](N)C(=O)O; NMeV = CN[C@H](C(=O)O)C(C)C; PEG1 = NCCOCCC(=O)O

Key:
Assay type in all cases: cell-based
[1] = target: T1, human somatostatin receptor subtype 2 (Homo sapiens, UniProt P30874); assay: Functional assay for SSTR2 agonists (HTRF cAMP); conditions: CHO-K1 cells stably expressing human SST2; NKH477-stimulated cAMP; 20 min at 37 C; read-out: hSST2 cAMP Avg EC50
T1 construct: expressed in transfected cells
T1 sequence (P30874 whole entry): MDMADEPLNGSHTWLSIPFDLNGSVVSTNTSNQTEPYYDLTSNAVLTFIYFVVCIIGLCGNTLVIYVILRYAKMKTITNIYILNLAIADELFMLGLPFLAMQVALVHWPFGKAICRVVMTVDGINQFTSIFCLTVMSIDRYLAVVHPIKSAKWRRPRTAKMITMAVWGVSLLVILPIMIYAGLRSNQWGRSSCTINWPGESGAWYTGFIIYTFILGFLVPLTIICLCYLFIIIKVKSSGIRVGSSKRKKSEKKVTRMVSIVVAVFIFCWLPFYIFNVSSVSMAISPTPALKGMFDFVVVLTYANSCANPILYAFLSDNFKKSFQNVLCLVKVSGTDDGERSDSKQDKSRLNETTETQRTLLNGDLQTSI
How it was run: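 Agonist activity read as fall in intracellular cAMP: HTRF 665/620 nm ratio regressed to a cAMP standard curve, EC50 fitted. Stable human SSTR2 CHO-K1 cells exposed 20 min at 37 °C to compound, final concentrations typically 0-10,000 nM.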

[2] = target: T2, SST2 (Homo sapiens, UniProt P30874); assay: PathHunter CHO-K1 SST2 Internalization Assay; conditions: PathHunter CHO-K1 SST2 cells; 90 min at 37 C; luminescence; read-out: Internalization EC50
T2 construct: host or cells: PathHunter CHO-K1 SST2 cells
T2 sequence (P30874 whole entry): as above
How it was run: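 Four-parameter nonlinear fits of background-corrected luminescence (duplicate means) gave IC50s. NDCs were serially diluted 1:3 over 11 points from a 10 uM final top concentration and incubated 90 min at 37 C with human SST2 CHO-K1 cells plated 48 h earlier at 2500/well. Beta-Glo read-out developed 60 min at RT.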

[3] = test system: NCI-H524 human small cell lung cancer cells; assay: H524 assay: inhibition of cell proliferation (CellTiter Glo); conditions: 2 h treatment, washout, additional 70 h incubation
How it was run: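 Proliferation was measured by CellTiter Glo 70 h after a washout that followed a 2 h pulse of NDC. Doses were an 11-point, two-fold dilution series from 1 uM. IC50 was fitted with a four-parameter model to luminescence-based % inhibition relative to control cells.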

Row | Compound | EC50 [1] [nM] | EC50 [2] [nM] | EC50 [3] [nM]
1 | CC[C@H](C)[C@@H]([C@@H](CC(=O)N1CCC[C@H]1[C@H](OC)[C@@H](C)C(=O)N[C@H](C)[C@@H](O)c1ccccc1)OC)N(C)C(=O)[C@@H](NC(=O)[C@H](C(C)C)N(C)C(=O)OCc1ccc(NC(=O)[C@H](CCCNC(N)=O)NC(=O)[C@@H](NC(=O)CN(C)C(=O)CCOCCC(=O)NCCNc2ncc(-c3cc(C)cc(F)c3)c(N3CCC(N)CC3)c2-c2nc3ccc(Cl)cc3[nH]2)C(C)C)c(OCC(N)=O)c1)C(C)C [Compound 20] | 0.093 | 7 | 29
2 | CC[C@H](C)[C@@H]([C@@H](CC(=O)N1CCC[C@H]1[C@H](OC)[C@@H](C)C(=O)N[C@H](C)[C@@H](O)c1ccccc1)OC)N(C)C(=O)[C@@H](NC(=O)[C@H](C(C)C)N(C)C(=O)OCc1ccc(NC(=O)[C@H](CCCNC(N)=O)NC(=O)[C@@H](NC(=O)CCOCCNC(=O)[C@H](CCC(=O)O)NC(=O)[C@H](CCC(N)=O)NC(=O)CCOCCC(=O)NCCNc2ncc(-c3cc(C)cc(F)c3)c(N3CCC(N)CC3)c2-c2nc3ccc(Cl)cc3[nH]2)C(C)C)cc1)C(C)C [Compound 191] (X4-QE[PEG1]V[Cit][PABC][NMeV]V[Dil][Dolaproine]-X2) | 1.9 | 38 | 1700
3 | CC[C@H](C)[C@@H]([C@@H](CC(=O)N1CCC[C@H]1[C@H](OC)[C@@H](C)C(=O)N[C@H](C)[C@@H](O)c1ccccc1)OC)N(C)C(=O)[C@@H](NC(=O)[C@H](C(C)C)N(C)C(=O)OCc1ccc(NC(=O)[C@H](C)NC(=O)[C@@H](NC(=O)CCOCCC(=O)NCCNc2ncc(-c3cc(C)cc(F)c3)c(N3CCC(N)CC3)c2-c2nc3c(F)c(F)ccc3[nH]2)C(C)C)c(O[C@@H]2O[C@H](C(=O)O)[C@@H](O)[C@H](O)[C@H]2O)c1)C(C)C [Compound 109] | 1.1 | 35 | 200
4 | CC[C@H](C)[C@@H]([C@@H](CC(=O)N1CCC[C@H]1[C@H](OC)[C@@H](C)C(=O)N[C@H](C)[C@@H](O)c1ccccc1)OC)N(C)C(=O)[C@@H](NC(=O)[C@H](C(C)C)N(C)C(=O)OCc1ccc(NC(=O)[C@H](CCCNC(N)=O)NC(=O)[C@@H](NC(=O)CCOCCC(=O)NCCNc2ncc(-c3cc(C)cc(F)c3)c(N3CCC(N)CC3)c2-c2nc3ccc(Cl)cc3[nH]2)C(C)C)cc1C(=O)N[C@@H](CCCNC(=O)CCCCc1ccc(I)cc1)C(=O)O)C(C)C [Compound 247] | 0.19 | 1.4 | 18
5 | CC[C@H](C)[C@@H]([C@@H](CC(=O)N1CCC[C@H]1[C@H](OC)[C@@H](C)C(=O)N[C@H](C)[C@@H](O)c1ccccc1)OC)N(C)C(=O)[C@@H](NC(=O)[C@H](C(C)C)N(C)C(=O)OCc1ccc(NC(=O)[C@H](CCCNC(N)=O)NC(=O)[C@@H](NC(=O)CCOCCC(=O)NCCNc2ncc(-c3cc(C)cc(F)c3)c(N3CCC(N)CC3)c2-c2nc3ccc(Cl)cc3[nH]2)C(C)C)cc1C(=O)NOCCN)C(C)C [Compound 88] | 0.25 | 3.1 | 84
6 | CC[C@H](C)[C@@H]([C@@H](CC(=O)N1CCC[C@H]1[C@H](OC)[C@@H](C)C(=O)N[C@H](C)[C@@H](O)c1ccccc1)OC)N(C)C(=O)[C@@H](NC(=O)C(C(C)C)N(C)C(=O)OCc1ccc(NC(=O)[C@H](CCCNC(N)=O)NC(=O)[C@@H](NC(=O)CCOCCC(=O)NCCNc2ncc(-c3cc(C)cc(F)c3)c(N3CCC(N)CC3)c2-c2nc3ccc(Cl)cc3[nH]2)C(C)C)c(O[C@@H]2O[C@H](C(=O)N3CCC(C(=O)O)CC3)[C@@H](O)[C@H](O)[C@H]2O)c1)C(C)C (stereo partly drawn) [Compound 235] | 0.11 | 4.4 | 14
7 | CC[C@H](C)[C@@H]([C@@H](CC(=O)N1CCC[C@H]1[C@H](OC)[C@@H](C)C(=O)N[C@H](C)[C@@H](O)c1ccccc1)OC)N(C)C(=O)[C@@H](NC(=O)[C@H](C(C)C)N(C)C(=O)OCc1ccc(NC(=O)[C@H](CCCNC(N)=O)NC(=O)[C@@H](NC(=O)CCOCCC(=O)NCCNc2ncc(-c3cc(C)cc(F)c3)c(N3CCC(N)CC3)c2-c2nc3ccc(Cl)cc3[nH]2)C(C)C)c(O[C@@H]2O[C@H](C(=O)NCCC(=O)O)[C@@H](O)[C@H](O)[C@H]2O)c1)C(C)C [Compound 49] | 0.14 | 3.4 | 9.4
8 | CC[C@H](C)[C@@H]([C@@H](CC(=O)N1CCC[C@H]1[C@H](OC)[C@@H](C)C(=O)N[C@H](C)[C@@H](O)c1ccccc1)OC)N(C)C(=O)[C@@H](NC(=O)[C@H](C(C)C)N(C)C(=O)OCc1ccc(NC(=O)[C@H](CCCNC(N)=O)NC(=O)[C@@H](NC(=O)[C@@H](CCC(=O)O)NC(=O)CCOCCC(=O)NCCNc2ncc(-c3cc(C)cc(F)c3)c(N3CCC(N)CC3)c2-c2nc3ccc(Cl)cc3[nH]2)C(C)C)cc1C(=O)NCCN)C(C)C [Compound 25] | 0.29 | 6.5 | 41
9 | CC[C@H](C)[C@@H]([C@@H](CC(=O)N1CCC[C@H]1[C@H](OC)[C@@H](C)C(=O)N[C@H](C)[C@@H](O)c1ccccc1)OC)N(C)C(=O)[C@@H](NC(=O)[C@H](C(C)C)N(C)C(=O)OCc1ccc(NC(=O)[C@H](CCCNC(N)=O)NC(=O)[C@@H](NC(=O)c2cc(NCCC(=O)NCCNc3ncc(-c4cc(C)cc(F)c4)c(N4CCC(N)CC4)c3-c3nc4ccc(Cl)cc4[nH]3)cc(C(=O)NCC(=O)O)c2)C(C)C)cc1)C(C)C [Compound 157] | 0.45 | 20 | 95
10 | CC[C@@H](C)[C@H]([C@H](CC(=O)N1CCCC1[C@@H](OC)[C@H](C)C(=O)N[C@@H](C)[C@H](O)c1ccccc1)OC)N(C)C(=O)[C@H](NC(=O)[C@@H](C(C)C)N(C)C(=O)OCc1ccc(NC(=O)[C@@H](C)NC(=O)[C@H](NC(=O)[C@@H](CCCO)NC(=O)CCOCCC(=O)NCCNc2ncc(-c3cc(C)cc(F)c3)c(N3CCC(N)CC3)c2-c2nc3ccc(Cl)cc3[nH]2)C(C)C)c(O[C@H]2O[C@@H](C(=O)O)[C@H](O)[C@@H](O)[C@@H]2O)c1)C(C)C (stereo partly drawn) [Compound 239] | 0.16 | 4.9 | 12
11 | CC[C@H](C)[C@@H]([C@@H](CC(=O)N1CCC[C@H]1[C@H](OC)[C@@H](C)C(=O)N[C@H](C)[C@@H](O)c1ccccc1)OC)N(C)C(=O)[C@@H](NC(=O)[C@H](C(C)C)N(C)C(=O)OCc1ccc(NC(=O)[C@H](CCCNC(N)=O)NC(=O)[C@@H](NC(=O)C[C@@H](N)C(=O)NCCOCCC(=O)NCCNc2ncc(-c3cc(C)cc(F)c3)c(N3CCC(N)CC3)c2-c2nc3ccc(Cl)cc3[nH]2)C(C)C)cc1C(=O)N1CC(C(=O)O)C1)C(C)C [Compound 73] | 0.06 | 3.1 | 110
12 | CC[C@H](C)[C@@H]([C@@H](CC(=O)N1CCC[C@H]1[C@H](OC)[C@@H](C)C(=O)N[C@H](C)[C@@H](O)c1ccccc1)OC)N(C)C(=O)[C@@H](NC(=O)[C@H](C(C)C)N(C)C(=O)OCc1ccc(NC(=O)[C@H](CCCNC(N)=O)NC(=O)[C@@H](NC(=O)[C@H](CCC(=O)O)NC(=O)CCOCCC(=O)NCCNc2ncc(-c3cc(C)cc(F)c3)c(N3CCC(N)CC3)c2-c2nc3ccc(Cl)cc3[nH]2)C(C)C)c(C(F)(F)F)c1)C(C)C [Compound 6] | 0.21 | 3.5 | 7300
13 | CC[C@H](C)[C@@H]([C@@H](CC(=O)N1CCC[C@H]1[C@H](OC)[C@@H](C)C(=O)N[C@H](C)[C@@H](O)c1ccccc1)OC)N(C)C(=O)[C@@H](NC(=O)[C@H](C(C)C)N(C)C(=O)OCc1ccc(NC(=O)[C@H](CCCNC(N)=O)NC(=O)[C@@H](NC(=O)[C@H](CCC(=O)O)NC(=O)CCOCCC(=O)NCCNc2ncc(-c3cc(C)cc(F)c3)c(N3CCC(N)CC3)c2-c2nc3ccc(Cl)cc3[nH]2)C(C)C)c(OCCN)c1)C(C)C [Compound 1] | 0.25 | 18 | 15
14 | CC[C@H](C)[C@@H]([C@@H](CC(=O)N1CCC[C@H]1[C@H](OC)[C@@H](C)C(=O)N[C@H](C)[C@@H](O)c1ccccc1)OC)N(C)C(=O)[C@@H](NC(=O)[C@H](C(C)C)N(C)C(=O)OCc1ccc(NC(=O)[C@H](CCCNC(N)=O)NC(=O)[C@@H](NC(=O)[C@H](CCC(=O)O)NC(=O)CCOCCC(=O)NCCNc2ncc(-c3cc(C)cc(F)c3)c(N3CCC(N)CC3)c2-c2nc3ccc(Cl)cc3[nH]2)C(C)C)cc1C(=O)N1CC(N)C1)C(C)C [Compound 91] | 0.46 | 2.5 | 1000
15 | CC[C@H](C)[C@@H]([C@@H](CC(=O)N1CCC[C@H]1[C@H](OC)[C@@H](C)C(=O)N[C@H](C)[C@@H](O)c1ccccc1)OC)N(C)C(=O)[C@@H](NC(=O)[C@H](C(C)C)N(C)C(=O)OCc1ccc(NC(=O)[C@H](CCCNC(N)=O)NC(=O)[C@@H](NC(=O)[C@H](Cc2c[nH]cn2)NC(=O)CCOCCC(=O)NCCNc2ncc(-c3cc(C)cc(F)c3)c(N3CCC(N)CC3)c2-c2nc3ccc(Cl)cc3[nH]2)C(C)C)c(O[C@@H]2C[C@H](C(=O)O)[C@@H](O)[C@H](O)[C@H]2O)c1)C(C)C [Compound 243] | 0.082 | 3.2 | 17
16 | CC[C@H](C)[C@@H]([C@@H](CC(=O)N1CCC[C@H]1[C@H](OC)[C@@H](C)C(=O)N[C@H](C)[C@@H](O)c1ccccc1)OC)N(C)C(=O)[C@@H](NC(=O)[C@H](C(C)C)N(C)C(=O)OCc1ccc(NC(=O)[C@H](CCCNC(N)=O)NC(=O)[C@@H](NC(=O)CN(C)C(=O)CCOCCC(=O)NCCNc2ncc(-c3cc(C)cc(F)c3)c(N3CCC(N)CC3)c2-c2nc3ccc(Cl)cc3[nH]2)C(C)C)cc1C(=O)NCC(=O)O)C(C)C [Compound 71] | 0.14 | 7.5 | 100
